Results taken from US20240252560A1, “LACTOBACILLUS RHAMNOSUS-DERIVED VESICLE AND USES THEREOF” (MD HEALTHCARE INC., priority 2021, published 2024).

Tested on: AMPK
Experiment: AMPK activation (pAMPK Western blotting) in muscle cells
Format: cell-based
Details: 1 hour, vesicles 0, 0.1, 1, 10 μg/ml, metformin 10 μg/ml
Procedure: Therefore, an experiment was performed in the following manner to evaluate the effect of Lactobacillus rhamnosus-derived vesicles (MDH-003) on cellular aging through AMPK activation within cells. That is, to evaluate AMPK activity according to the concentration of Lactobacillus rhamnosus-derived vesicles in muscle cells, cells were treated with Lactobacillus rhamnosus-derived vesicles at concentrations of 0, 0.1, 1, and 10 μg/ml for 1 hour. As a control group, metformin, which suppresses aging, was used at a concentration of 10 μg/ml. After treating the cells with the drug, the difference in the amount of pAMPK, which is an important indicator in AMPK signaling, was measured by Western blotting.

For `CN(C)C(=N)N=C(N)N` [metformin], the “phosphorylation of AMPK (pAMPK)” value was “enhanced”.
